Experimental findings from ChEMBL document CHEMBL2424589, “Novel hydroxyl tricyclics (e.g., GSK966587) as potent inhibitors of bacterial type IIA topoisomerases” (Bioorg Med Chem Lett, 2013) are described below.

Values after ≈ are worked out from the molar mass of the structure shown.

The species entered for series [1] is Canis familiaris. The series is described as follows: Toxicity in dog assessed as hepatic portal tract lesions measured for 14 days by GLP assay. Format: organism-based, Canis lupus familiaris. To be noted: in vivo, 336 h.
The subject of series [2] is Streptococcus pneumoniae. The series is described as follows: Antibacterial activity against Streptococcus pneumoniae 1629 assessed as growth inhibition after 18 to 24 hrs by broth microdilution method. Format: functional.
The subject of series [3] is Staphylococcus aureus. The series can be described thus: Antibacterial activity against Staphylococcus aureus WCUH-29 assessed as growth inhibition after 18 to 24 hrs by broth microdilution method. Format: functional.
The subject of series [4] is Haemophilus influenzae. The series is described as follows: Antibacterial activity against Haemophilus influenzae H128 assessed as growth inhibition after 18 to 24 hrs by broth microdilution method. Format: functional.
The nature of series [5]: Inhibition of DNA gyrase-dependent DNA replication in toluenized-Haemophilus influenzae cells assessed as ATP-dependent [33P]-TTP incorporation after 30 mins by scintillation proximity assay. To be noted: 0.5 h.
The target of series [6] is T1, Voltage-gated inwardly rectifying potassium channel KCNH2 (Homo sapiens, UniProt Q12809). The series can be described thus: Inhibition of human ERG transfected in HEK293 cells by patch clamp assay. Format: cell-based.
The target in series [7] is T1, Voltage-gated inwardly rectifying potassium channel KCNH2. The series is described as follows: Inhibition of human ERG by patch clamp assay.
Series [8] can be described thus: Cmax in nonneutropenic mouse infected with Streptococcus pneumoniae 1629 at 50 mg/kg, po bid. Format: ADME, organism-based. Set-up: dose 50 mg/kg, route oral. Conditions: in vivo.
Series [9] is described as follows: AUC in nonneutropenic mouse infected with Streptococcus pneumoniae 1629 at 50 mg/kg, po bid measured per day. Type of series: ADME, organism-based. The arrangement: dose 50 mg/kg, route oral. Conditions: plasma.
Series [10] relates to Streptococcus pneumoniae. The series can be described thus: Antibacterial activity against Streptococcus pneumoniae 1629 infected in nonneutropenic mouse assessed as reduction in bacterial burden in lungs at 100 mg/kg, po bid after 48 hrs. Type of series: functional, Lung.
In series [11] the test system is Streptococcus pneumoniae. The series can be described thus: Antibacterial activity against Streptococcus pneumoniae 1629 infected in nonneutropenic mouse assessed as reduction in bacterial burden in lungs at 50 mg/kg, po bid after 48 hrs relative to 1 hr nontreated control. Format: functional, Lung.
Series [12] has as its system Liver microsomes. The series can be described thus: Intrinsic clearance in human liver microsomes. Format: ADME, Microsome.
Series [13] is described as follows: Intrinsic clearance in monkey liver microsomes. Type of series: ADME, Macaca mulatta, Microsome. To be noted: rhesus monkey.
Series [14] deals with Liver. The series is described as follows: Intrinsic clearance in dog liver microsomes. Format: ADME, Canis lupus familiaris, Microsome.
Series [15] can be described thus: Plasma protein binding in human. To be noted: read-out: PPB (converted). Format: ADME, cell-free.
Series [16] can be described thus: Plasma protein binding in monkey. Format: ADME, cell-free, Macaca mulatta. Conditions: rhesus monkey, read-out: PPB (converted).
Series [17] in a line: Plasma protein binding in dog. Format: ADME, cell-free, Canis lupus familiaris. To be noted: read-out: PPB (converted).
The nature of series [18]: Plasma protein binding in rat. Type of series: ADME, cell-free. To be noted: read-out: PPB (converted).
The test system of series [19] is Cynomolgus monkey. The series is described as follows: Renal clerance in cynomolgus monkey relative to total clearance. Format: ADME, organism-based, Macaca fascicularis, Kidney. To be noted: in vivo.
The species entered for series [20] is Canis familiaris. The series can be described thus: Renal clerance in Beagle dog relative to total clearance. Format: ADME, organism-based, Canis lupus familiaris, Kidney. Conditions: in vivo.
Series [21] deals with Cynomolgus monkey. The series can be described thus: Blood clerance in cynomolgus monkey relative to hepatic blood flow. Type of series: ADME, organism-based, Macaca fascicularis. Conditions: in vivo.
The species named for series [22] is Canis familiaris. The series can be described thus: Blood clerance in Beagle dog relative to hepatic blood flow. Format: ADME, organism-based, Canis lupus familiaris. To be noted: in vivo.
For series [23], the species on record is Rattus norvegicus. The series is described as follows: Blood clerance in Sprague-Dawley rat relative to hepatic blood flow. Type of series: ADME, organism-based. To be noted: in vivo.
The nature of series [24]: Oral bioavailability in cynomolgus monkey at 5 mg/kg. Type of series: ADME, organism-based, Macaca fascicularis. Conditions: in vivo.
Series [25] in a line: Oral bioavailability in Beagle dog at 5 mg/kg. Format: ADME, organism-based, Canis lupus familiaris. Conditions: in vivo.
Series [26] in a line: AUC in cynomolgus monkey at 5 mg/kg, po. Type of series: ADME, organism-based, Macaca fascicularis. Conditions: plasma. Set-up: dose 5 mg/kg, route oral.
The nature of series [27]: Oral bioavailability in Sprague-Dawley rat at 5 mg/kg. Type of series: ADME, organism-based. To be noted: in vivo.
Series [28] in a line: AUC in Beagle dog at 5 mg/kg, po. Type of series: ADME, organism-based, Canis lupus familiaris. The arrangement: dose 5 mg/kg, route oral. To be noted: plasma.
Series [29] in a line: AUC in Sprague-Dawley rat at 5 mg/kg, po. Format: ADME, organism-based. The arrangement: dose 5 mg/kg, route oral. To be noted: plasma.
Series [30] in a line: Half life in Beagle dog at 3 mg/kg, iv. Format: ADME, organism-based, Canis lupus familiaris. Set-up: dose 3 mg/kg, route intravenous. Conditions: in vivo.
Series [31] can be described thus: Half life in cynomolgus monkey at 3 mg/kg, iv. Type of series: ADME, organism-based, Macaca fascicularis. The arrangement: dose 3 mg/kg, route intravenous. Conditions: in vivo.
Series [32] can be described thus: Half life in Sprague-Dawley rat at 3 mg/kg, iv. Type of series: ADME, organism-based. The arrangement: dose 3 mg/kg, route intravenous. To be noted: in vivo.
Series [33] in a line: Volume of distribution at steady state in cynomolgus monkey at 3 mg/kg, iv. Set-up: dose 3 mg/kg, route intravenous. Format: ADME, organism-based, Macaca fascicularis. To be noted: in vivo, read-out: Vdss.
Series [34] in a line: Volume of distribution at steady state in Beagle dog at 3 mg/kg, iv. Format: ADME, organism-based, Canis lupus familiaris. Set-up: dose 3 mg/kg, route intravenous. Conditions: in vivo, read-out: Vdss.
Series [35] is described as follows: Volume of distribution at steady state in Sprague-Dawley rat at 3 mg/kg, iv. Type of series: ADME, organism-based. The arrangement: dose 3 mg/kg, route intravenous. To be noted: in vivo, read-out: Vdss.
Series [36] in a line: Clearance in cynomolgus monkey at 3 mg/kg, iv. Format: ADME, organism-based, Macaca fascicularis. Set-up: dose 3 mg/kg, route intravenous. To be noted: in vivo.
A short description of series [37]: Clearance in Beagle dog at 3 mg/kg, iv. Type of series: ADME, organism-based, Canis lupus familiaris. The arrangement: dose 3 mg/kg, route intravenous. To be noted: in vivo.
The nature of series [38]: Clearance in Sprague-Dawley rat at 3 mg/kg, iv. To be noted: in vivo. The arrangement: dose 3 mg/kg, route intravenous. Type of series: ADME, organism-based.

T1 sequence (Q12809 whole entry): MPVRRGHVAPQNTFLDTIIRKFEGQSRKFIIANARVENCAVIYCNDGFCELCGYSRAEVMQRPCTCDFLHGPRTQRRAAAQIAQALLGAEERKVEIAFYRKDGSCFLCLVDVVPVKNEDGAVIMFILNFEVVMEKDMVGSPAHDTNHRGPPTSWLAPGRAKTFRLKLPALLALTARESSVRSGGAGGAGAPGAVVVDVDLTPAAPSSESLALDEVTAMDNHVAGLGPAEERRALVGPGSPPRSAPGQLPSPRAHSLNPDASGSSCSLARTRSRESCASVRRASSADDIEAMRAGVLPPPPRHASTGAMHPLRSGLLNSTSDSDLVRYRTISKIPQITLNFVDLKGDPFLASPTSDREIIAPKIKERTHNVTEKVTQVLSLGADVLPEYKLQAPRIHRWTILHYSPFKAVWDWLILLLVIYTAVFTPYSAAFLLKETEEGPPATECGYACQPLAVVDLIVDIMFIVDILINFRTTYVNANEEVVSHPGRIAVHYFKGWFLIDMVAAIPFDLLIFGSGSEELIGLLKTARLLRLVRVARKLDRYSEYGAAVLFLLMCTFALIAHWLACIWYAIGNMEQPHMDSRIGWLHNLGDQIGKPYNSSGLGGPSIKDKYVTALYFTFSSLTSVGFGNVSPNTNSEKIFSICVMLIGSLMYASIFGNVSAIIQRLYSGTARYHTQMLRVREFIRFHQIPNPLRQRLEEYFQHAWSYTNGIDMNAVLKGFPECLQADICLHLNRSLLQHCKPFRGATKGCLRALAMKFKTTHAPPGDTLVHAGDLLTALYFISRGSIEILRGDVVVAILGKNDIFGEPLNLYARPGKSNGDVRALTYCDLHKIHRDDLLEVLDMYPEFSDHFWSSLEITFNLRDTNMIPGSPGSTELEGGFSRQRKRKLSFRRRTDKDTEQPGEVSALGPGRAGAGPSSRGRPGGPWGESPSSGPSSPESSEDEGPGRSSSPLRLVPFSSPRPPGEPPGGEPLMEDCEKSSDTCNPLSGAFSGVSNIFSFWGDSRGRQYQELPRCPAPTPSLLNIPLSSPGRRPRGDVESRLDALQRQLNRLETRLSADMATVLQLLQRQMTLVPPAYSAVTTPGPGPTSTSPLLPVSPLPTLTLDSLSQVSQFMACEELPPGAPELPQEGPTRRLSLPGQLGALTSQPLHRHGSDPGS

For `O=c1ccc2ncc(F)c3c2n1C[C@@]3(F)CN1CCC(NCc2cc3c(cn2)OCCO3)CC1`, the Activity result in series [1] is “Non-toxic”. The MIC in series [2] is 0.06 µg/mL (≈ 0.128 µM); in [3], 0.03 µg/mL (≈ 0.0639 µM); in series [4], 0.5 µg/mL (≈ 1.06 µM). The IC50 in [5] was found to be 0.04 µg/mL (≈ 0.0852 µM).

Regarding `O=c1ccc2ncc(F)c3c2n1C[C@@]3(O)CN1CCO[C@@H](CNCc2cc3c(cn2)OCCO3)C1`, the Activity result in series [1] is on record as “Non-toxic”. The MIC in series [2] is 4 µg/mL (≈ 8.27 µM); in series [3] it was over 16 µg/mL; in [4] it was 4 µg/mL (≈ 8.27 µM). Further, the IC50 in [5] came to 0.361 µg/mL (≈ 0.747 µM).

As to `O=c1ccc2ccc(F)c3c2n1C[C@@]3(O)CN1CCC(NCc2cc3c(cn2)OCCO3)CC1`, the Activity result in series [1] is reported as “Non-toxic”. The MIC in series [2] was 0.125 µg/mL (≈ 0.268 µM); in series [3] it was 0.06 µg/mL (≈ 0.129 µM); in [4], 1 µg/mL (≈ 2.14 µM). In addition, in [5], the IC50 stood at 0.071 µg/mL (≈ 0.152 µM).

Consider `O=c1cnc2ccc(F)c3c2n1C[C@@]3(O)CN1CCC(NCc2cc3c(cn2)OCCO3)CC1`, for which the Activity entry in series [1] is listed as “Non-toxic”. For the same molecule, the concentration for half-maximal inhibition (IC50) worked out at 206 µM in [6], 101 µM in [7] and 0.058 µg/mL (≈ 0.124 µM) in [5]. The MIC in series [2] was 0.125 µg/mL (≈ 0.267 µM); in [3], 0.125 µg/mL (≈ 0.267 µM); in series [4], 0.5 µg/mL (≈ 1.07 µM).

For `O=c1ccc2ncc(F)c3c2n1C[C@@]3(O)CN1CCC[C@@H](CNCc2cc3c(cn2)OCCO3)C1`, the Activity entry in series [1] is recorded as “Non-toxic”. Besides, the results for the MIC in series [2], in series [3] and in series [4] were 4 µg/mL (≈ 8.31 µM), 4 µg/mL (≈ 8.31 µM) and 16 µg/mL (≈ 33.2 µM), respectively. Also, the IC50 in [5] came to 1.21 µg/mL (≈ 2.52 µM).

For the molecule `O=c1ccc2ncc(F)c3c2n1C[C@H]3CN1CCC(NCc2cc3c(cn2)OCCO3)CC1`, in series [1], the Activity entry is “Non-toxic”. The IC50 in [6] was 122 µM; in [7] it was 58 µM; in series [5], 0.035 µg/mL (≈ 0.0775 µM). Moreover, the MIC in [2] was determined as 0.06 µg/mL (≈ 0.133 µM); in series [3] it was 0.03 µg/mL (≈ 0.0664 µM); in series [4], 0.25 µg/mL (≈ 0.554 µM).

As to `O=c1ccc2ncc(F)c3c2n1C[C@]3(O)CN1CCC(NCc2cc3c(cn2)OCCO3)CC1`, in series [1], the Activity result is recorded as “Non-toxic”. Further, the MIC in series [2] was 4 µg/mL (≈ 8.56 µM); in series [3], 8 µg/mL (≈ 17.1 µM); in series [4], over 16 µg/mL. In addition, the IC50 in [5] was over 1.32 µg/mL.

For the molecule `O=c1c(F)cc2ncc(F)c3c2n1C[C@@]3(O)CN1CCC(NCc2cc3c(cn2)OCCO3)CC1`, the Activity result in series [1] is given as “Non-toxic”. Also, the 50% inhibitory concentration (IC50) was 289 µM in series [7] and 0.037 µg/mL (≈ 0.0762 µM) in series [5]. For the same molecule, the MIC in [2] turned out to be 0.25 µg/mL (≈ 0.515 µM); in [3] it was 0.25 µg/mL (≈ 0.515 µM); in series [4] it was 0.5 µg/mL (≈ 1.03 µM).

With `O=c1ccc2ncc(F)c3c2n1C[C@@]3(O)CN1CCC(NCc2cc3c(cn2)OCCO3)CC1`, in series [1], the Activity result is listed as “Toxic”. In series [8], this molecule displayed a maximum concentration (Cmax) of 8000 ng/mL. In addition, the AUC in series [9] is 50000 ng·h/mL; in [26], 1920 ng·h/mL; in series [28], 2820 ng·h/mL; in series [29], 460 ng·h/mL. Also, the log10cfu in series [10] is 1.7; in series [11] it was 2. Moreover, the CLH was under 0.5 mL/min/g in series [12], 1.6 mL/min/g in series [13] and under 0.5 mL/min/g in series [14]. The fraction unbound in [15] was 0.777; in series [16], 0.781; in [17], 0.823; in [18] it was 0.577. The CL is listed as 15% in series [19]; 27% in series [20]; 50% in [21]; 50% in [22]; 100% in [23]. The bioavailability in series [24] came out at 55%; in series [25] it was 63%; in [27] it was 34%. Also, the half-life is 7.1 h in [30], 2.3 h in series [31] and 3.1 h in [32]. The Vd came to 3.4 L/kg in [33], 6.4 L/kg in series [34] and 8.6 L/kg in [35]. The results for the clearance in series [36], in series [37] and in series [38] were 25.1 mL/min/kg, 18.1 mL/min/kg and 62.2 mL/min/kg, respectively. Further, the IC50 in series [6] was determined as 310 µM; in series [7] it was 239 µM; in series [5] it was 0.035 µg/mL (≈ 0.0749 µM). The MIC in [2] was 0.125 µg/mL (≈ 0.267 µM); in [3], 0.125 µg/mL (≈ 0.267 µM); in series [4] it was 1 µg/mL (≈ 2.14 µM).
